In PubChem BioAssay AID179 (DTP/NCI, 2004):
Calls of active or inactive are those of the source.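 Rule for the calls: active = compounds giving half or more protection of infected cells from virus-caused growth loss, again on retest; inactive = the rest.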

System: CEM cells HIV-1 protection, formazan growth assay
Assay: NCI AIDS Antiviral Assay
Conditions: for IC50: measured here: growth of uninfected CEM cells
In short: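 Steps: treat uninfected and HIV-1-infected human CEM cells at five drug levels; quantify growth by soluble formazan; retest any compound reaching 50% protection; classify actives from the retest.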

Row | SMILES | EC50 [µM] | IC50 [µM] | outcome
1 | NC(N)=NS(=O)(=O)c1ccc(NC(=O)c2cccc3c(N)c4ccccc4nc23)cc1 | > 51.3 | 33.9 | 
2 | CNc1ccc(/C=C2\C=Cc3ccccc32)cc1I | > 20 | 3.39 | 
3 | C[C@@H]1[C@@H](c2ccccc2)C12C(=O)NC(=O)NC2=O | > 200 | > 200 | 
4 | CCCCc1ccc(Nc2nc(Cl)c3ccn(C4CC(Oc5ccc(C)cc5)C(COc5ccc(C)cc5)O4)c3n2)cc1 (configuration not stated) | > 200 | > 200 | 
5 | O=S(=O)(O)C(O)/C=C/c1ccccc1 (configuration not stated) |  |  | inactive
6 | N#Cc1nsnc1-c1nc(-c2nsnc2C#N)nc(-c2nsnc2C#N)n1 | > 200 | 141 | 
7 | Brc1cccc(C2ON=C(c3ccccc3)N2C23CC4CC(CC(C4)C2)C3)c1 (configuration not stated) | > 200 | > 200 | 
8 | CN(c1ccccc1)c1nc(=[N+](C)C)ss1 |  |  | inactive
9 | CC(=O)OCC1OC(n2c(-c3ccc(C)cc3)cc(-c3ccccc3)c(C#N)c2=S)C(OC(C)=O)C(OC(C)=O)C1OC(C)=O (configuration not stated) | > 200 | 67.6 | 
10 | CCOC(=O)CC/C(=N/Nc1ccc(Cl)cc1[N+](=O)[O-])C(=O)OCC | > 200 | > 200 | 
11 | Cn1c(=O)c2c(nc3n2C(CCl)CO3)n(C)c1=O (configuration not stated) |  |  | inactive
12 | N#Cc1ccc(Nc2cnc3cc(N)ccc3n2)cc1 | > 20 | > 20 | 
13 | N/N=C(\C(=O)Nc1ccc(Cl)cc1Cl)C(c1cnc2ccccc2n1)[N+](=O)[O-] (configuration not stated) | > 120 | > 120 | 
14 | CNNC(=NS(=O)(=O)c1cc(C#N)c(NNC)cc1S)NNC |  |  | inactive
15 | CCOC(=O)C1(c2ccccc2)CCN(CC(=O)c2ccccc2)CC1 | > 102 | 56.2 | 
16 | CCSSC1(C)C(=O)N2CCCC2C(=O)N1C (configuration not stated) | > 200 | 11.5 | 
17 | O=C(CCCN1CCC2(CC1)CC(=O)N(N1CCOCC1)C2=O)c1ccc(F)cc1 | > 200 | > 200 | 
18 | CCN(CC)CCCn1c(=O)c2cccnc2n2c3c(=O)n(C)c(=O)n(C)c3nc12 | 25.1 | 126 | 
19 | N#Cc1ccccc1NC(=O)/C(=N\NC(=O)c1ccncc1)C(c1cnc2ccc([N+](=O)[O-])cc2n1)[N+](=O)[O-] (configuration not stated) | > 479 | 191 | 
20 | Cc1nc2cccc(F)c2c(=O)n1C1CCCCNC1=O (configuration not stated) | > 200 | > 200 | 
21 | O=C1CCN(CCC(F)(F)C(F)(F)C(F)(F)C(F)(F)F)C(=S)N1 | > 26.3 | > 26.3 | 
22 | [N-]=[N+]=NC1CC(n2cc(COCC(F)(F)F)c(=O)[nH]c2=O)OC1CO (configuration not stated) | 5.75 | 251 | 

Row | SMILES | EC50 [µM] | IC50 [µM] | outcome
23 | CCOC(=O)[C@@]12C(=O)[C@@H](C)CC[C@@H]1[C@@H](C)C[C@H]2C=C(C)C | > 200 | 110 | 
24 | CC1(C)OCN(c2ccc(Cl)cc2)Cn2c1nc1ccccc12 | > 200 | 28.8 | 
25 | CN(C)/N=C(/c1nc2ccc([N+](=O)[O-])cc2[nH]c1=O)C(O)c1ccco1 (configuration not stated) | > 263 | 191 | 
26 | N#Cc1c2c(c(N=P(c3ccccc3)(c3ccccc3)c3ccccc3)n3c1nc1ccccc13)CCCC2 | > 1.05 | > 1.05 | 
27 | CC1=CSC(O)(c2ccc(Cl)cc2)c2noc(=O)n21 (configuration not stated) | > 200 | 112 | 
28 | Cc1cc(C)c2c(O)c(S(=O)(=O)c3ccc(Cl)cc3)c(=O)oc2c1 | > 200 | 77.6 | 
29 | CCN(CC)CCNc1ccc(CO)c2oc3ccc(O)cc3c(=O)c12 | > 191 | 1.32 | 
30 | O=C(O)C1=C(C(=O)O)C2c3ccccc3C1c1ccccc12 | > 200 | > 200 | 
31 | CC(=O)OC1=C(C)S(=O)(=O)c2ccccc21 | > 200 | > 200 | 
32 | COC(=O)C1=C(\N2CCOCC2)CCCCC/C=C\1C(=O)OC | > 776 | 513 | 
33 | NC(=O)C(=O)c1ncn(Cc2ccccc2)c1N | > 200 | > 200 | 
34 | COC(C)(C)C1(O)CCC(C)CC1=O (configuration not stated) | > 100 | > 100 | 
35 | NCCCNCCCCNCCCNCc1c2ccccc2c(CNCCCNCCCCNCCCN)c2ccccc12 | > 1820 | 3.8 | 
36 | Nc1ccc(S(N)(=O)=O)cc1SSc1cc(S(N)(=O)=O)ccc1N | 55 | 132 | 
37 | C=C1C(=O)OC2CC(C)C3CC(O)OC(OCC)C3(C)CC12 (configuration not stated) | > 83.2 | 15.5 | 
38 | CC(=S)N/C=C(/c1ccc(Cl)cc1Cl)S(=O)(=O)Cc1ccc(Cl)cc1Cl | > 100 | > 100 | 
39 | O=c1c2ccccc2nc2[nH]ncn12 | > 200 | 117 | 
40 | COc1ccc2c(O)c(S(=O)(=O)c3ccc(C)cc3)c(=O)oc2c1 | > 200 | 132 | 
41 | O=C1CCC2(CC1)Cc1ccccc1C2O (configuration not stated) | > 200 | > 200 | 
42 | C=CCN(N=O)C(=O)N(CCCC(NC(C)=O)C(=O)NCc1ccccc1)Cc1ccccc1 (configuration not stated) | > 40.7 | > 40.7 | 
43 | NC(=O)N/N=C1\CCCc2ccccc21 | > 178 | > 178 | 
44 | Cc1cn(C2CCC(CO)(CF)O2)c(=O)[nH]c1=O (configuration not stated) | > 200 | > 200 | 

Row | SMILES | EC50 [µM] | IC50 [µM] | outcome
45 | Cc1ccc(S(=O)(=O)c2ccc([N+](=O)[O-])o2)cc1 | 0.02 | 0.0631 | 
46 | CCOC(=O)COc1ccc(OC)c2c1C(=O)CCC2 |  |  | inactive
47 | O=C(O)c1ccc(CSc2ccccc2C(=O)O)c([N+](=O)[O-])c1 | > 759 | > 759 | 
48 | CCCCCCCCCCCCS(=O)(=O)O.[Pb] | > 200 | > 200 | 
49 | CCOC(=O)C(CS)NC(=O)CCCCCCCC(=O)O (configuration not stated) | > 100 | 79.4 | 
50 | C=CCCC1CCCCNC1=S (configuration not stated) | > 200 | > 200 | 
51 | NN1CCc2ccccc2C1 | > 200 | > 200 | 
52 | CCOC1c2cc(C(C)C)c(O)c(O)c2[C@@]23CCCC(C)(C)C2C1OC3=O (some centres not stated) | > 200 | 9.33 | 
53 | COc1cc(/C=C2\C(=O)N(C(=O)c3ccc(NC(C)=O)cc3)N=C2C)ccc1O | > 66.1 | > 66.1 | 
54 | Nc1ccc(N=Nc2ccc(CCc3ccc(N=Nc4ccc(N)c5cc(S(=O)(=O)O)ccc45)cc3S(=O)(=O)O)c(S(=O)(=O)O)c2)c2ccc(S(=O)(=O)O)cc12 | > 145 | 53.7 | 
55 | COc1ccccc1N1C(=O)/C(=C\c2cccc(Oc3ccccc3)c2)S(=O)(=O)C1c1ccccc1 (configuration not stated) | > 200 | 36.3 | 
56 | COC(=O)C1(Cc2ccc3c(c2)CCC3)Cc2ccc3c(c2C1=O)CCC3 (configuration not stated) | > 20 | 9.55 | 
57 | CC(=O)Nc1ccc(/C=C2/SC(=S)N(/C=C(\c3ccccc3)S(=O)Cc3ccccc3)C2=O)cc1 (configuration not stated) | > 200 | 89.1 | 
58 | CCOC(=O)c1ccc(N2C(=O)/C(=C/c3ccc(N(CCC#N)CCC#N)cc3)N=C2c2cc([N+](=O)[O-])ccc2Cl)cc1 | > 12 | > 12 | 
59 | CCOC(=O)/C(=C/c1ccco1)P(=O)(OCC)OCC | > 832 | 490 | 
60 | S=C(N/N=C/c1ccccc1)Nc1ccc(Oc2ccc(NC(=S)N/N=C/c3ccccc3)cc2)cc1 | 8.91 | 11.7 | 
61 | Cc1ccc(Nc2nc(NNC(=O)Cc3ccccc3)nc(NNC(=O)c3ccncc3)n2)cc1 | > 50.1 | > 50.1 | 
62 | COC(=N)C(C)C | > 1820 | > 1820 | 
63 | C[C@]12CCC(=O)C=C1CC[C@@H]1C2CC[C@]2(C)Nc3c(cnn3-c3ccccc3)CC12 (some centres not stated) |  |  | inactive
64 | NC(=O)c1ccc(S(=O)(=NS(=O)(=O)c2ccccc2)c2ccc(C(N)=O)cc2)cc1 | > 295 | > 295 | 
